Results as given in ChEMBL document CHEMBL1201862, “PubChem BioAssay data set” (2004).
Active and inactive are the calls of the source. Rule as the data show it: actives have a measured IC50 and inactives only a lower limit.

Target: Envelope glycoprotein gp160 (Human immunodeficiency virus 1, UniProt Q6QLK5)
Experiment: cell-free HIV fusion peptide-binding blockers – biochemical, uHTS, fluorescence dequenching, […] (AID 1986)

Envelope glycoprotein gp160, sequence (Q6QLK5 whole entry, the tested form may be a part): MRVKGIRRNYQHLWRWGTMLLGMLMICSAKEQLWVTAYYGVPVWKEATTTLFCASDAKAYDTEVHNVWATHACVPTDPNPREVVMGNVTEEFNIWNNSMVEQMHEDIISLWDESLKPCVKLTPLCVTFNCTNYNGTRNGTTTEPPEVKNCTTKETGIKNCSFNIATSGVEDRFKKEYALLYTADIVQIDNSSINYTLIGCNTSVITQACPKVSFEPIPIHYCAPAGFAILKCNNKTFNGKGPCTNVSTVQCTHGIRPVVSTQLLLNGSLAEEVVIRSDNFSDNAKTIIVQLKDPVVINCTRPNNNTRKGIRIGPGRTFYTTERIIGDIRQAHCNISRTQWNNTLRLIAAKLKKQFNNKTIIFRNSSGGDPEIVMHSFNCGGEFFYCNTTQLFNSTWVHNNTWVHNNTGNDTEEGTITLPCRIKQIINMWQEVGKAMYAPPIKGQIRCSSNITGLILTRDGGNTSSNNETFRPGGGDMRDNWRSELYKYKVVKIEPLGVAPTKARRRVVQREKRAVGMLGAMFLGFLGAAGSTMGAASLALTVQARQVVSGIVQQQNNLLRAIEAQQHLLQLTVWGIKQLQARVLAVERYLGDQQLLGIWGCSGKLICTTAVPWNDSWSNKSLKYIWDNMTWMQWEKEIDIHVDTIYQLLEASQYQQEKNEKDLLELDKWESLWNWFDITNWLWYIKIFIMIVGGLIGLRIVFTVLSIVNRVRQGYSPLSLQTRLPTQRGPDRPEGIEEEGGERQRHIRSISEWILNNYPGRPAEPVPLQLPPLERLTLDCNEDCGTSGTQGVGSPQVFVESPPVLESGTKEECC

In the case of `O=c1[nH]c(=S)[nH]c2c1C(c1ccc(Br)cc1)c1c([nH]c(=S)[nH]c1=O)O2`, the IC50 is reported as 11.3 µM (active).
